Results on 18 molecules are retold here after patent EP4786466A1, “QUINAZOLINE DERIVATIVE, SALT THEREOF, AND PHARMACEUTICAL COMPOSITION COMPRISING SAME AS ACTIVE INGREDIENT” (Korea Research Institute of Chemical Technology, priority 2023, dated 2025).

Data set [1] relates to MCF7 breast cancer cell lines. In words: Cell viability analysis, WST-8 assay, MCF7. Conditions: for viability at 1 µM / viability at 1.25 µM: Homo sapiens, MCF7, 72 h; for viability at 1 µM: read-out: Cell viability (%) WST-8, MCF7 (1 µM), compound 1 µM, 72 hours; for viability at 1.25 µM: read-out: Cell viability (%) WST-8, MCF7, footnote a: concentration 1.25 µM, 72 hours. In general terms: Formazan colour is commonly taken as a measure of viable cells.
Description: (§1) MCF7 breast cancer cell lines and MCF10A normal breast cancer cell lines were treated with serial dilutions of the compounds of the present invention ranging from 1 µM to 15.63 nM for 72 hours. Cell viability was measured by the WST-8 assay (Cyto XTM cell viability assay kit; LPS solution, Daejeon, Korea) according to the manufacturer's instructions.

Data set [2] has as its system pENSA. Nature of the data set: pENSA level by immunofluorescence (described method: in vitro kinase analysis with GST-tag-MASTL and His-tag-ENSA). As to conditions: compound 1 µM. The class given is cell-based. As to the method:
Two recombinant GST-tag-MASTL (Thermo Fisher Scientific) and His-tag-ENSA (Sino Biological Inc., Beijing, China) were used for in vitro kinase analysis. In vitro kinase analysis was performed as described in the literature [Front Oncol 2020, 10, 571601, 39-202021-10-20doi:10.3389/fonc.2020.571601.].
Phosphorylated ENSA (pENSA), which is activated by phosphorylation by MASTL, can be utilized as a biomarker as it is expected that its activity will be inhibited along with the inhibition of MASTL. In the cell viability assay, MCF7 refers to a breast cancer cell line, and MCF10A refers to a normal breast […] cell line.

Data set [3] in a line: in vitro. As to conditions: human.
Description: as §1
Data set [4] deals with T1, Recombinant GST-TAG-MASTL (Homo sapiens, UniProt Q96GX5).
T1 construct: GST; purchased Thermo Fisher Scientific
T1 sequence (Q96GX5 1-879): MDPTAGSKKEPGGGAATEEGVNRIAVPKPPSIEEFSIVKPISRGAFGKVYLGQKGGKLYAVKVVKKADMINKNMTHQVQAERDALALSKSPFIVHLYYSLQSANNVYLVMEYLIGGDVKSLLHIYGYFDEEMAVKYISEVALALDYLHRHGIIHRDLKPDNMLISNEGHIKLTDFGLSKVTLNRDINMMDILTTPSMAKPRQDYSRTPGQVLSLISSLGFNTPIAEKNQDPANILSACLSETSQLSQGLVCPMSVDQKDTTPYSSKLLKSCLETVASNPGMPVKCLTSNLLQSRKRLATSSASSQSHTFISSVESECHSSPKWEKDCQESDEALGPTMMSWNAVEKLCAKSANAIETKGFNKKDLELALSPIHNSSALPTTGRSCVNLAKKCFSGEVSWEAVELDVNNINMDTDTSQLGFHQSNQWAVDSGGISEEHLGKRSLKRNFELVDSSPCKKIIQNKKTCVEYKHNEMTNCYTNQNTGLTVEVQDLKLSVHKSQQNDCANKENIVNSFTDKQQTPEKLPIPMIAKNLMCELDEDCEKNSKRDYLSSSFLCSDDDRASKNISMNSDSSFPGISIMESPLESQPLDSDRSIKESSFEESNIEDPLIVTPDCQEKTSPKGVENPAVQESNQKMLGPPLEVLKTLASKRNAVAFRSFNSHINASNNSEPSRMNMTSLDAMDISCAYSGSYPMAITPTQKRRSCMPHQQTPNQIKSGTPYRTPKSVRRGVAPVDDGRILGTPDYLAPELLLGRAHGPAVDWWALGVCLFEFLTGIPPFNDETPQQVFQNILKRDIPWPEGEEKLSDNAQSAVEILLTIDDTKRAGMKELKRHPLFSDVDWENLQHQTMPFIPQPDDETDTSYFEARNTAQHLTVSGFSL
In words: HTRF-based kinase assay (HTRF KinEASE assay kit). The class given is biochemical. As to conditions: for activity at 1 µM: read-out: MASTL activity (%) HTRF (1 µM). From the text: Recombinant GST-TAG-MASTL (Thermo Fisher Scientific, MA, USA) was used for HTRF-based kinase assays. The HTRF KinEASE assay kit (CisBio, MA, USA) was used according to the manufacturer's instructions.

Where two headings read alike, the source gives them in different places.

Consider `NCCCCNC(=O)c1ccc(Nc2nc(Nc3cc(C4CC4)[nH]n3)c3ccccc3n2)cc1` [4ac, M-(4-aminobutyl)-4-((4-((5-cyclopropyl-1G-pyrazol-3-yl)amino)quinazolin-2-yl)amino)benzamide.trifluoroacetic acid], for which the viability at 1 µM in data set [1] came to 104%; in data set [3] (mcf10a cells), 102%. Also, the “pENSA (%) Immunofluor ecense (1 µM)” value in data set [2] is 149%. Besides, the activity at 1 µM in data set [4] is 58.3%.

In the case of `CC(C)(C)OC(=O)NCCCNC(=O)c1ccc(Nc2nc(Nc3cc(C4CC4)[nH]n3)c3ccccc3n2)cc1` [4x, sdqs-butyl (3-(4-((4-((5-cyclopropyl-1G-pyrazol-3-yl)amino)quinazolin-2-yl)amino)benzamido)propyl)carbamate], the viability at 1 µM is 75.8% in data set [1] and 80% in data set [3] (mcf10a cells). The “pENSA (%) Immunofluor ecense (1 µM)” value in data set [2] is 185%. For the same molecule, the activity at 1 µM in data set [4] (compound 1 µM) was found to be 70.8%.

Consider `CC(C)(C)OC(=O)NCCCCNC(=O)c1ccc(Nc2nc(Nc3cc(C4CC4)[nH]n3)c3ccccc3n2)cc1` [4y, sdqs-butyl (4-(4-((4-((5-cyclopropyl-1G-pyrazol-3-yl)amino)quinazolin-2-yl)amino)benzamido)butyl)carbamate], for which the viability at 1 µM in data set [1] worked out at 78.7%; in data set [3] (mcf10a cells), 80.2%. Also, in data set [2], the “pENSA (%) Immunofluor ecense (1 µM)” value is 164%. The activity at 1 µM in data set [4] (compound 1 µM) is 75.3%.

Regarding `CC(C)(C)OC(=O)NCCCCCNC(=O)c1ccc(Nc2nc(Nc3cc(C4CC4)[nH]n3)c3ccccc3n2)cc1` [4z, sdqs-butyl (5-(4-((4-((5-cyclopropyl-1G-pyrazol-3-yl)amino)quinazolin-2-yl)amino)benzamido)pentyl)carbamate], the values for the viability at 1 µM in data set [1] and in data set [3] (mcf10a cells) were 86.3% and 77.7%, respectively. The “pENSA (%) Immunofluor ecense (1 µM)” value in data set [2] came to 188%. The activity at 1 µM in data set [4] (compound 1 µM) amounted to 85.3%.

In the case of `CC(C)(C)OC(=O)N1CCC2(CC1)CN(c1nc(Nc3cc(C4CC4)[nH]n3)c3ccccc3n1)C2` [6d, sdqs-butyl 2-(4-((5-cyclopropyl-1G-pyrazol-3-yl)amino)quinazolin-2-yl)-2,7-diazaspiro[3.5]nonane-7-carboxylate], the viability at 1 µM in data set [1] came to 88.6%; in data set [3] (mcf10a cells), 104%. For the same molecule, in data set [2], the “pENSA (%) Immunofluor ecense (1 µM)” value is listed as 96.4%. Further, the activity at 1 µM in data set [4] (compound 1 µM) turned out to be 48%.

With `N#CCc1ccc(Nc2nc(Nc3cccc(N)c3)c3ccccc3n2)cc1` [compound 3n, 2-(4-((4-((3-aminophenyl)amino)quinazolin-2-yl)amino)phenyl)acetonitrile], the viability at 1 µM in data set [1] stood at 117%; in data set [3], 95.2%. For the same molecule, the activity at 1 µM in data set [4] (compound 1 µM) was 125%.

With `CNc1nc(Nc2cc(C3CC3)[nH]n2)c2ccccc2n1` [compound 4cb, N^4-(5-cyclopropyl-1H-pyrazol-3-yl)-N^2-methylquinazoline-2,4-diamine], the viability at 1.25 µM in data set [1] was determined as 87.5%; in data set [3], 102%. Also, in data set [4] (footnote b: concentration 10 µM, read-out: MASTL activity (%) HTRF), the activity at 10 µM was determined as 53.1%.

For `CC(C)(C)OC(=O)N1CC2C(C1)C2Nc1nc(Nc2cc(C3CC3)[nH]n2)c2ccccc2n1` (stereo not drawn) [compound 4cg, tert-butyl 6-((4-((5-cyclopropyl-1H-pyrazol-3-yl)amino)quinazolin-2-yl)amino)-3-azabicyclo[3.1.0]hexane-3-carboxylate], the “Cell viability (%) WST-8, MCF7 (1 µM)” value in data set [1] (compound 1 µM, 72 hours, 1 µM) is given as 73.6%. Besides, the viability at 1 µM in data set [3] is 117%. For the same molecule, the “MASTL activity (%) HTRF (1 µM)” value in data set [4] (compound 1 µM, 1 µM) amounted to 76.4%.

With `N#Cc1ccc(CNc2nc(Nc3cc(C4CC4)[nH]n3)c3ccccc3n2)cc1` [compound 4ch, 4-(((4-((5-cyclopropyl-1G-pyrazol-3-yl)amino)quinazolin-2-yl)amino)methyl)benzonitrile], the viability at 1 µM in data set [1] was 73.6%; in data set [3] (mcf10a cells), 32%. Moreover, the activity at 1 µM in data set [4] came to 43%.

By IC50 is commonly meant the concentration at which inhibition is half-maximal. Take `N#Cc1ccc(Nc2nc(Nc3cc(C4CC4)[nH]n3)c3ccccc3n2)cc1` [compound 4d, 4-((4-((5-cyclopropyl-1G-pyrazol-3-yl)amino)quinazolin-2-yl)amino)benzonitrile]: the viability at 1.25 µM in data set [1] was 5.6%; in data set [3] (mcf10a cells), 3.2%. Also, the “selectivity for breast cancer cells over normal cells in the cell viability assay” value in data set [1] (MCF7 versus MCF10A) is recorded as “selectively inhibit only breast cancer cells”. Further, the IC50 in data set [4] stood at 625 nM. Also, the activity at 1.25 µM in data set [4] (read-out: MASTL activity (%) HTRF) amounted to 32.6%.

Regarding `c1ccc2c(Nc3cc(C4CC4)[nH]n3)nc(Nc3ccc4cn[nH]c4c3)nc2c1` [compound 4de, N^4-(5-cyclopropyl-1H-pyrazol-3-yl)-N^2-(1H-indazol-6-yl)quinazoline-2,4-diamine], the values for the viability at 1 µM in data set [1] and in data set [3] were 44.2% and 24%, respectively. In addition, the activity at 1 µM in data set [4] (compound 1 µM) turned out to be 31.8%.

Regarding `c1ccc2c(Nc3cc(C4CC4)n[nH]3)nc(Nc3ccc4nc[nH]c4c3)nc2c1` [compound 4df, N^2-(1H-benzo[d]imidazol-5-yl)-N^4-(5-cyclopropyl-1H-pyrazol-3-yl)quinazoline-2,4-diamine], the viability at 1 µM turned out to be 78.4% in data set [1] and 4.8% in data set [3]. Also, the activity at 1 µM in data set [4] (compound 1 µM) amounted to 31.8%.

As for `c1ccc2c(Nc3cc(C4CC4)[nH]n3)nc(Nc3cnc4[nH]ccc4c3)nc2c1` [compound 4dg, N^4-(5-cyclopropyl-1H-pyrazol-3-yl)-N^2-(1H-pyrrolo[2,3-b]pyridin-5-yl)quinazoline-2,4-diamine], the viability at 1 µM stood at 49% in data set [1] and 12% in data set [3]. In data set [4] (compound 1 µM), the activity at 1 µM came out at 37.9%.

Turning to `c1ccc2c(Nc3cc(C4CC4)[nH]n3)nc(Nc3cnc4cccnn34)nc2c1` [compound 4dh, N^4-(5-cyclopropyl-1H-pyrazol-3-yl)-N^2-(imidazo[1,2-b]pyridazin-3-yl)quinazoline-2,4-diamine], the viability at 1 µM in data set [1] came out at 116%; in data set [3], 111%. In data set [4] (compound 1 µM), the activity at 1 µM was 88.7%.

For the molecule `N#CCc1ccc(C2=CCN(c3nc(Nc4cc(C5CC5)[nH]n4)c4ccccc4n3)CC2)cc1F` [compound 6n, 2-(4-(1-(4-((5-cyclopropyl-1G-pyrazol-3-yl)amino)quinazolin-2-yl)-1,2,3,6-tetrahydropyridin-4-yl)-2-fluorophenyl)acetonitrile], the viability at 1 µM in data set [1] came out at 110%. In addition, the viability at 1 µM in data set [3] (mcf10a cells) worked out at 116%. In data set [4], the IC50 amounted to 121 nM and the activity at 1 µM was 30.8%.

As for `N#Cc1cc(Cl)ccc1C1=CCN(c2nc(Nc3cc(C4CC4)[nH]n3)c3ccccc3n2)CC1` [compound 6o, 5-chloro-2-(1-(4-((5-cyclopropyl-1G-pyrazol-3-yl)amino)quinazolin-2-yl)-1,2,3,6-tetrahydropyridin-4-yl)benzonitrile], the viability at 1 µM in data set [1] is 48.4%; in data set [3] (mcf10a cells), 24.9%. Also, the activity at 1 µM in data set [4] was 61.2%.

Regarding `N#Cc1ccccc1S(=O)(=O)N1CC2CC1CN2c1nc(Nc2cc(C3CC3)[nH]n2)c2ccccc2n1` (stereo not drawn) [compound 15v, 2-((5-(4-((5-cyclopropyl-1G-pyrazol-3-yl)amino)quinazolin-2-yl)-2,5-diazabicyclo[2.2.1]heptan-2-yl)sulfonyl)benzonitrile], in data set [1], the viability at 1 µM worked out at 80.5%. In addition, in data set [3] (mcf10a cells), the viability at 1 µM is 81.8%. For the same molecule, in data set [4], the IC50 turned out to be 52.7 nM and the activity at 1 µM is 29.5%.

Regarding `O=C1CSC(Nc2nc(Nc3ccccc3)nc3ccccc23)=N1` [compound 26b, 2-((2-(phenylamino)quinazolin-4-yl)amino)thiazol-4(5H)-one], the viability at 1 µM in data set [1] came to 95.8%; in data set [3], 98.8%. Also, the activity at 1 µM in data set [4] (compound 1 µM) was 112%.
